Usually Ki stands for the equilibrium dissociation constant of an inhibitor or competing ligand from its target.

Here are results for 24 compounds from patent US8461328B2, “Tricyclic heterocyclic compounds, compositions and methods of use thereof” (Genentech, Inc., priority 2010, dated 2013).

Holding throughout (type): biochemical
Assay [1] addresses T1, TYK2 (Homo sapiens, UniProt P29597).
T1 construct: made in house; host or cells: SF9 insect cells (baculovirus)
T1 sequence (P29597 873-1187): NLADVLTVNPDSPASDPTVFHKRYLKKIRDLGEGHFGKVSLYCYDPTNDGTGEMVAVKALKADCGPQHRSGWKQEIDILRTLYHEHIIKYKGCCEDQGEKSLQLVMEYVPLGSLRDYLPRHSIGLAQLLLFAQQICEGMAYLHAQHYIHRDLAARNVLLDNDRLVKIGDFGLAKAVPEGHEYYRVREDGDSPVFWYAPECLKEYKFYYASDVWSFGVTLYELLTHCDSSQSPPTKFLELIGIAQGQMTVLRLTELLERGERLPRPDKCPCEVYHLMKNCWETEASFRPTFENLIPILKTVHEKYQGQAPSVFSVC
Nature of the assay: TYK2 inhibition (Table 4).

Assay [2] concerns the target T2, JAK3 (Homo sapiens, UniProt P52333).
T2 construct: made in house; host or cells: SF9 insect cells (baculovirus)
Briefly: JAK3 inhibition (Table 4). The conditions noted are these: read-out: JAK3 Ki.

In assay [3] the target is T3, JAK1 (Homo sapiens, UniProt P23458).
T3 construct: made in house; host or cells: SF9 insect cells (baculovirus)
T3 sequence (P23458 852-1154): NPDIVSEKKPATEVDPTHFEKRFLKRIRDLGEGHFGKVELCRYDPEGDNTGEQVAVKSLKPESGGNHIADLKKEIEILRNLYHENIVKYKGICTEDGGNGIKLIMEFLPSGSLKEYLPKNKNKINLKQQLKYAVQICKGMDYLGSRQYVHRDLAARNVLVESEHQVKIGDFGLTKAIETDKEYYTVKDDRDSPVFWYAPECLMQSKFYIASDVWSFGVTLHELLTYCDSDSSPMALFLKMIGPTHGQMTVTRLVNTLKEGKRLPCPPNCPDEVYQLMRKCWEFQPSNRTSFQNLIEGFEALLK
Nature of the assay: JAK1 inhibition (Table 4). The conditions noted are these: read-out: JAK1 Ki.

Assay [4] deals with T4, JAK2 (Homo sapiens, UniProt O60674).
T4 construct: made in house; host or cells: SF9 insect cells (baculovirus)
T4 sequence (O60674 812-1132): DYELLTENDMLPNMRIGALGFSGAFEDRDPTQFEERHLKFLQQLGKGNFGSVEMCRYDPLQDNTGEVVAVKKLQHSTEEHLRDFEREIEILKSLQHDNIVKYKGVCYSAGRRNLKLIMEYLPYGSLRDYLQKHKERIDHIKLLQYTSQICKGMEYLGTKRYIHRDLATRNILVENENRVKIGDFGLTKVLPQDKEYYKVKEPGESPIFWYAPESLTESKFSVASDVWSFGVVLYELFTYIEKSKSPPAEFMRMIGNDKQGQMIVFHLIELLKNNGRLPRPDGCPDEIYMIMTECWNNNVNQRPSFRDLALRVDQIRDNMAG
Briefly: JAK2 inhibition (Table 4). The conditions noted are these: read-out: JAK2 Ki.

T2 sequence (P52333 783-1124): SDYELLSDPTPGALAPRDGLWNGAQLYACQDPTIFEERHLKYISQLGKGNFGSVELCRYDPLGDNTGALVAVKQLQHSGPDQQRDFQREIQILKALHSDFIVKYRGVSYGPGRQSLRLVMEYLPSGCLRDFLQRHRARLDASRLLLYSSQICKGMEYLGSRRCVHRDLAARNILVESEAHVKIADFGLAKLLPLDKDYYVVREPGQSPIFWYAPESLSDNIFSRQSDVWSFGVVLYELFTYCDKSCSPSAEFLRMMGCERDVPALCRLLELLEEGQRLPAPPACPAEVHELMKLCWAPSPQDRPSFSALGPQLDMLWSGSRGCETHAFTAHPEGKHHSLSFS

In the case of `O=C(CN1CCCC1=O)N1CCC(n2cnc3cnc4[nH]ccc4c32)CC1` [Example 440, 1-{2-Oxo-2-[4-(6H-1,3,5,6-tetraaza-as-indacen-1-yl)-piperidin-1-yl]-ethyl}-pyrrolidin-2-one], the Ki in assay [1] turned out to be 713 nM; in assay [2] it was 844 nM; in assay [3], 43.2 nM; in assay [4], 115 nM.

With `O=C(CN1CCCCC1=O)N1CCC(n2cnc3cnc4[nH]ccc4c32)CC1` [Example 441, 1-{2-Oxo-2-[4-(6H-1,3,5,6-tetraaza-as-indacen-1-yl)-piperidin-1-yl]-ethyl}-piperidin-2-one], the Ki in assay [1] worked out at 832 nM; in assay [2], 1530 nM; in assay [3], 55.8 nM; in assay [4] it was 179 nM.

Turning to `CCS(=O)(=O)N1CCC(n2cnc3cnc4[nH]ccc4c32)CC1` [Example 442, 1-(1-Ethanesulfonyl-piperidin-4-yl)-1,6-dihydro-1,3,5,6-tetraaza-as-indacene], the Ki in assay [1] worked out at 18.8 nM; in assay [2], 105 nM; in assay [3], 2.87 nM; in assay [4], 4.02 nM.

As for `O=S(=O)(C1CCCC1)N1CCC(n2cnc3cnc4[nH]ccc4c32)CC1` [Example 443, 1-(1-Cyclopentanesulfonyl-piperidin-4-yl)-1,6-dihydro-1,3,5,6-tetraaza-as-indacene], the Ki in assay [1] was 47.2 nM; in assay [2] it was 419 nM; in assay [3], 8.11 nM; in assay [4] it was 13.9 nM.

`O=C1CCCN1c1ccc(S(=O)(=O)N2CCC(n3cnc4cnc5[nH]ccc5c43)CC2)cc1` [Example 445, 1-{4-[4-(6H-1,3,5,6-Tetraaza-as-indacen-1-yl)-piperidine-1-sulfonyl]-phenyl}-pyrrolidin-2-one]: the Ki stood at 96.9 nM in assay [1], 84 nM in assay [2], 11.9 nM in assay [3] and 39.2 nM in assay [4].

As to `N#Cc1ccc(S(=O)(=O)N2CCC(n3cnc4cnc5[nH]ccc5c43)CC2)c(Cl)c1` [Example 446, 3-Chloro-4-[4-(6H-1,3,5,6-tetraaza-as-indacen-1-yl)-piperidine-1-sulfonyl]-benzonitrile], the inhibitory constant (Ki) in assay [1] turned out to be 10.3 nM; in assay [2], 189 nM; in assay [3], 1.14 nM; in assay [4] it was 2.25 nM.

Regarding `Cc1noc(C)c1S(=O)(=O)N1CCC(n2cnc3cnc4[nH]ccc4c32)CC1` [Example 447, 1-[1-(3,5-Dimethyl-isoxazole-4-sulfonyl)-piperidin-4-yl]-1,6-dihydro-1,3,5,6-tetraaza-as-indacene], the Ki in assay [1] is 84.4 nM; in assay [2] it was 477 nM; in assay [3], 16.4 nM; in assay [4] it was 21.2 nM.

For `Cc1nn(C)cc1S(=O)(=O)N1CCC(n2cnc3cnc4[nH]ccc4c32)CC1` [Example 448, 1-[1-(1,3-Dimethyl-1H-pyrazole-4-sulfonyl)-piperidin-4-yl]-1,6-dihydro-1,3,5,6-tetraaza-as-indacene], the inhibition constant (Ki) in assay [1] came out at 268 nM; in assay [2], 873 nM; in assay [3], 34.4 nM; in assay [4], 35.7 nM.

Regarding `O=S(=O)(Cc1ccccc1)N1CCC(n2cnc3cnc4[nH]ccc4c32)CC1` [Example 449, 1-(1-Phenylmethanesulfonyl-piperidin-4-yl)-1,6-dihydro-1,3,5,6-tetraaza-as-indacene], the Ki is 58.2 nM in assay [1], 32.6 nM in assay [2], 3.5 nM in assay [3] and 8.22 nM in assay [4].

Turning to `CS(=O)(=O)c1ccc(S(=O)(=O)N2CCC(n3cnc4cnc5[nH]ccc5c43)CC2)cc1` [Example 450, 1-(1-(4-(methylsulfonyl)phenylsulfonyl)piperidin-4-yl)-1,6-dihydroimidazo[4,5-d]pyrrolo[2,3-b]pyridine], the Ki in assay [1] is 32.8 nM; in assay [2], 659 nM; in assay [3], 3.06 nM; in assay [4], 10.2 nM.

Turning to `CC(C)(C#N)C(=O)N1CCC(n2cnc3cnc4[nH]ccc4c32)CC1` [Example 451, 2,2-Dimethyl-3-oxo-3-[4-(6H-1,3,5,6-tetraaza-as-indacen-1-yl)-piperidin-1-yl]-propionitrile], the Ki in assay [1] is 325 nM; in assay [2], 428 nM; in assay [3] it was 36.6 nM; in assay [4], 36.1 nM.

Regarding `O=C([C@@H]1COCCN1)N1CCC(n2cnc3cnc4[nH]ccc4c32)CC1` [Example 455, (S)-Morpholin-3-yl-[4-(6H-1,3,5,6-tetraaza-as-indacen-1-yl)-piperidin-1-yl]-methanone], the Ki worked out at 262 nM in assay [1], 514 nM in assay [2], 18.5 nM in assay [3] and 78.5 nM in assay [4].

Turning to `C[C@@H](O)c1nc2cnc3[nH]ccc3c2n1[C@@H]1CCCOC1` [Example 456, (R)-1-[(R)-1-(Tetrahydro-pyran-3-yl)-1,6-dihydro-1,2,3,5,6-tetraaza-as-indacen-2-yl]-ethanol], the Ki is 176 nM in assay [1], 346 nM in assay [2], 70.1 nM in assay [3] and 354 nM in assay [4].

Turning to `c1cc2c(ncc3nnn(C4CCOCC4)c32)[nH]1` [Example 467, 1-(Tetrahydro-pyran-4-yl)-1,6-dihydro-1,2,3,5,6-pentaaza-as-indacene], the Ki was 230 nM in assay [1], 429 nM in assay [2], 32.3 nM in assay [3] and 77.8 nM in assay [4].

For `c1cc2c(ncc3ncn(C4CCOCC4)c32)[nH]1` [Example 468, 1-(Tetrahydro-pyran-4-yl)-1,6-dihydro-1,3,5,6-tetraaza-as-indacene], the Ki in assay [1] came to 82.3 nM; in assay [2] it was 150 nM; in assay [3], 14.4 nM; in assay [4] it was 46.6 nM.

As for `c1cncc(Cc2nc3cnc4[nH]ccc4c3n2C2CCOCC2)c1` [Example 469, 2-Pyridin-3-ylmethyl-1-(tetrahydro-pyran-4-yl)-1,6-dihydro-1,3,5,6-tetraaza-as-indacene], the inhibition constant (Ki) in assay [1] was 1770 nM; in assay [2] it was 475 nM; in assay [3], 215 nM; in assay [4], 1450 nM.

On to `O=c1ccn(Cc2nc3cnc4[nH]ccc4c3n2C2CCOCC2)c(=O)[nH]1` [Example 470, 1-[1-(Tetrahydro-pyran-4-yl)-1,6-dihydro-1,3,5,6-tetraaza-as-indacen-2-ylmethyl]-1H-pyrimidine-2,4-dione], for which the Ki amounted to 357 nM in assay [1], 64.8 nM in assay [2], 196 nM in assay [3] and 557 nM in assay [4].

As to `Cc1n[nH]c(C)c1CCc1nc2cnc3[nH]ccc3c2n1C1CCOCC1` [Example 471, 2-[2-(3,5-Dimethyl-1H-pyrazol-4-yl)-ethyl]-1-(tetrahydro-pyran-4-yl)-1,6-dihydro-1,3,5,6-tetraaza-as-indacene], the inhibition constant Ki was found to be 793 nM in assay [1], 727 nM in assay [2], 278 nM in assay [3] and 781 nM in assay [4].

As for `Cc1cc(Cc2nc3cnc4[nH]ccc4c3n2C2CCOCC2)on1` [Example 472, 2-(3-Methyl-isoxazol-5-ylmethyl)-1-(tetrahydro-pyran-4-yl)-1,6-dihydro-1,3,5,6-tetraaza-as-indacene], the Ki in assay [1] was 389 nM; in assay [2], 405 nM; in assay [3], 57.3 nM; in assay [4], 694 nM.

In the case of `O=C1CN(Cc2nc3cnc4[nH]ccc4c3n2C2CCOCC2)CCN1` [Example 473, 4-[1-(Tetrahydro-pyran-4-yl)-1,6-dihydro-1,3,5,6-tetraaza-as-indacen-2-ylmethyl]-piperazin-2-one], the Ki in assay [1] worked out at 1700 nM; in assay [2], 2010 nM; in assay [3], 447 nM; in assay [4] it was 1700 nM.

Turning to `O=C(O)[C@H]1C[C@@H](n2cnc3cnc4[nH]ccc4c32)C1` [Example 484, 3-(6H-1,3,5,6-Tetraaza-as-indacen-1-yl)-cyclobutanecarboxylic acid], the Ki in assay [1] was 1290 nM; in assay [2], 323 nM; in assay [3], 441 nM; in assay [4], 181 nM.

For the compound `CS(=O)(=O)Cc1nc2cnc3[nH]ccc3c2n1C1CCN(CCC#N)CC1` [Example 491, 3-[4-(2-Methanesulfonylmethyl-6H-1,3,5,6-tetraaza-as-indacen-1-yl)-piperidin-1-yl]-propionitrile], the inhibition constant Ki was determined as 95.8 nM in assay [1], 23.6 nM in assay [2], 9.7 nM in assay [3] and 34 nM in assay [4].

As to `CC(=O)NCc1nc2cnc3[nH]ccc3c2n1C1CCN(CCC#N)CC1` [Example 492, N-{1-[1-(2-Cyano-ethyl)-piperidin-4-yl]-1,6-dihydro-1,3,5,6-tetraaza-as-indacen-2-ylmethyl}-acetamide], the Ki in assay [1] turned out to be 210 nM; in assay [2], 200 nM; in assay [3], 16 nM; in assay [4], 86.5 nM.

As for `CCOC(=O)NCc1nc2cnc3[nH]ccc3c2n1C1CCN(CCC#N)CC1` [Example 493, {1-[1-(2-Cyano-ethyl)-piperidin-4-yl]-1,6-dihydro-1,3,5,6-tetraaza-as-indacen-2-ylmethyl}-carbamic acid ethyl ester], the Ki in assay [1] amounted to 121 nM; in assay [2], 80.2 nM; in assay [3] it was 11.3 nM; in assay [4], 36.2 nM.
